Laboratory results taken from US9938276B2, “6,5-bicyclic octahydropyrrolopyridine orexin receptor antagonists” (Merck Sharp & Dohme Corp., priority 2014, dated 2018).

How the values were obtained:
[1] = biological target: human orexin-2 receptor (Homo sapiens (Human), UniProt O43614); test: hOX2R FLIPR Ca2+ flux assay; format: cell-based; settings: CHO cells expressing the receptor; agonist 70 pM Ala-6,12 human orexin-A
Description: In a typical experiment the OX1 and OX2 receptor antagonistic activity of the compounds of the present invention was determined in accordance with the following experimental method. For intracellular calcium measurements, Chinese hamster ovary (CHO) cells expressing the rat orexin-1 receptor or the human orexin-2 receptor, are grown in Iscove's modified DMEM containing 2 mM L-glutamine, […], 1% hypoxanthine-thymidine supplement, 100 U/ml penicillin, 100 μg/ml streptomycin and 10% heat-inactivated fetal calf serum (FCS). The cells are seeded at 20,000 cells/well into Becton-Dickinson black 384-well clear bottom sterile plates coated with poly-D-lysine. All reagents were from GIBCO-Invitrogen Corp. The seeded plates are incubated overnight at 37° C. and 5% CO2. Ala-6,12 human orexin-A as the agonist is prepared as a 1 mM stock solution in 1% bovine serum albumin (BSA) and diluted in assay buffer (HBSS containing 20 mM HEPES, 0.1% BSA and 2.5 mM probenecid, pH7.4) for use in the assay at a final concentration of 70 pM. Test compounds are prepared as 10 mM stock solution in DMSO, then diluted in 384-well plates, first in DMSO, then assay buffer. On the day of the assay, cells are washed 3 times with 100 μl assay buffer and then incubated for 60 min (37° C., 5% CO2) in 60 μl assay buffer containing 1 μM Fluo-4AM ester, 0.02% pluronic acid, and 1% BSA. The dye loading solution is then aspirated and cells are washed 3 times with 100 μl assay buffer. 30 μl of that same buffer is left in each well. Within the Fluorescent Imaging Plate Reader (FLIPR, Molecular Devices), test compounds are added to the plate in a volume of 25 μl, incubated for 5 min and finally 25 μl of agonist is added. Fluorescence is measured for each well at 1 second intervals for 5 minutes and the height of each fluorescence peak is compared to the height of the fluorescence peak induced by 70 pM Ala-6,12 orexin-A with buffer in place of antagonist. […] Alternatively, compound potency can be assessed by a radioligand binding assay (described in Bergman et. al. Bioorg. Med. Chem. Lett. 2008, 18, 1425-1430) in which the inhibition constant (Ki) is determined in membranes prepared from CHO cells expressing either the OX1 or OX2 receptor. The intrinsic orexin receptor antagonist activity of a compound which may be used in the present invention may be determined by these assays.

[2] = biological target: hOX1R (Homo sapiens, UniProt O43613); test: hOX1R FLIPR Ca2+ flux assay; format: cell-based; settings: CHO cells expressing the receptor; agonist 70 pM Ala-6,12 human orexin-A

Chain of human orexin-2 receptor (O43614 whole entry): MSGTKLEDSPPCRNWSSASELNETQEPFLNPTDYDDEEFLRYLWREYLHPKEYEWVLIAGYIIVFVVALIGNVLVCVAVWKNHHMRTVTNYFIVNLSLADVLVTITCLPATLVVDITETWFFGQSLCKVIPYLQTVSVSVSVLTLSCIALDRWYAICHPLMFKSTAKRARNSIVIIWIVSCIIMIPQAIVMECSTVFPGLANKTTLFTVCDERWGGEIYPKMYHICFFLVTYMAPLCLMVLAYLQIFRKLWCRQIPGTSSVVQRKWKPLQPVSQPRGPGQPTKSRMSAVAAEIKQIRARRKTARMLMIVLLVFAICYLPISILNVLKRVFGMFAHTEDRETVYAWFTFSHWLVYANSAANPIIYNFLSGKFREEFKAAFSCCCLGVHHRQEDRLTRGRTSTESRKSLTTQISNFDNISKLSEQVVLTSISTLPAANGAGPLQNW

SMILES: COC(=O)c1nc(N2CC[C@H]3CCN(C(=O)c4ccccc4-n4nccn4)C[C@H]32)sc1C (stereo in doubt) [Example B12, methyl 2-((3aR, 7aS)-6-(2-(2H-1,2,3-triazol-2-yl)benzoyl)octahydro-1H-pyrrolo[2,3-c]pyridin-1-yl)-5-methylthiazole-4-carboxylate]
- IC50 [1]: 1.34 µM
- IC50 [2]: 10 µM

SMILES: N#Cc1ccnc(N2CC[C@H]3CCN(C(=O)c4ccccc4-n4ncnn4)C[C@H]32)c1 (stereo in doubt) [Example D2, 2-((3aS, 7aS)-6-(2-(2H-tetrazol-2-yl)benzoyl)octahydro-1H-pyrrolo[2,3-c]pyridin-1-yl)isonicotinonitrile]
- IC50 [1]: 0.11 µM
- IC50 [2]: 10 µM

SMILES: N#Cc1ccnc(N2CC[C@H]3CCN(C(=O)c4ccccc4OC(F)(F)F)C[C@H]32)c1 (stereo in doubt) [Example D3, 2-((3aS, 7aS)-6-(2-(trifluoromethoxy)benzoyl)octahydro-1H-pyrrolo[2,3-c]pyridin-1-yl)isonicotinonitrile]
- IC50 [1]: 0.0791 µM
- IC50 [2]: 10 µM

SMILES: N#Cc1ccnc(N2CC[C@H]3CCN(C(=O)c4nccnc4-c4ccccn4)C[C@H]32)c1 (stereo in doubt) [Example D4, 2-((3aS, 7aS)-6-(3-(pyridin-2-yl)pyrazine-2-carbonyl)octahydro-1H-pyrrolo[2,3-c]pyridin-1-yl)isonicotinonitrile]
- IC50 [1]: 0.328 µM
- IC50 [2]: ≥ 10 µM

SMILES: N#Cc1ccnc(N2CC[C@H]3CCN(C(=O)c4cccnc4-n4cccn4)C[C@H]32)c1 (stereo in doubt) [Example D5, 2-((3aS, 7aS)-6-(2-(1H-pyrazol-1-yl)nicotinoyl)octahydro-1H-pyrrolo[2,3-c]pyridin-1-yl)isonicotinonitrile]
- IC50 [1]: 0.037 µM
- IC50 [2]: 10 µM

SMILES: N#Cc1ccnc(N2CC[C@H]3CCN(C(=O)c4nccnc4-n4cccn4)C[C@H]32)c1 (stereo in doubt) [Example D6, 2-((3aS, 7aS)-6-(3-(1H-pyrazol-1-yl)pyrazine-2-carbonyl)octahydro-1H-pyrrolo[2,3-c]pyridin-1-yl)isonicotinonitrile]
- IC50 [1]: 0.117 µM
- IC50 [2]: 10 µM

SMILES: N#Cc1ccnc(N2CC[C@H]3CCN(C(=O)c4ccccc4-n4nccn4)C[C@H]32)c1 [Example A1, 2-((3aS,7aS)-6-(2-(2H-1,2,3-triazol-2-yl)benzoyl)octahydro-1H-pyrrolo[2,3-c]pyridin-1-yl)isonicotinonitrile]
- IC50 [1]: 0.0405 µM
- IC50 [2]: 10 µM

SMILES: Cc1cc(C)nc(N2CC[C@@H]3CCN(C(=O)c4ccccc4-n4nccn4)C[C@@H]32)n1 [Example A2, (2-(2H-1,2,3-triazol-2-yl)phenyl)((3aR, 7aR)-1-(4,6-dimethylpyrimidin-2-yl)hyexahydro-1H-pyrrolo[2,3-c]pyridin-6(2H)-yl)methanone]
- IC50 [1]: 0.163 µM
- IC50 [2]: 10 µM

SMILES: N#Cc1ccnc(N2CC[C@@H]3CCN(C(=O)c4ccccc4-n4nccn4)C[C@@H]32)n1 [Example A3, 2-((3aR, 7aR)-6-(2-(2H-1,2,3-triazol-2-yl)benzoyl)octahydro-1H-pyrrolo[2,3-c]pyridin-1-yl)pyrimidine-4-carbonitrile]
- IC50 [1]: 0.943 µM
- IC50 [2]: 10 µM

SMILES: Cc1cc(C#N)nc(N2CC[C@@H]3CCN(C(=O)c4ccccc4-n4nccn4)C[C@@H]32)n1 [Example A4, 2-((3aR, 7aR)-6-(2-(2H-1,2,3-triazol-2-yl)benzoyl)octahydro-1H-pyrrolo[2,3-c]pyridin-1-yl)-6-methylpyrimidine-4-carbonitrile]
- IC50 [1]: 10 µM
- IC50 [2]: 10 µM

SMILES: COc1cc(OC)nc(N2CC[C@@H]3CCN(C(=O)c4ccccc4-n4nccn4)C[C@@H]32)n1 [Example A5, (2-(2H-1,2,3-triazol-2-yl)phenyl)((3aR, 7aR)-1-(4,6-dimethoxypyrimidin-2-yl)hexahydro-1H-pyrrolo[2,3-c]pyridin-6(2H)-yl)methanone]
- IC50 [1]: 2.1 µM
- IC50 [2]: 10 µM

SMILES: O=C(c1ccccc1-n1nccn1)N1CC[C@H]2CCN(c3ncccn3)[C@H]2C1 [Example A6]
- IC50 [1]: 6.08 µM
- IC50 [2]: 10 µM

SMILES: COC(=O)c1ccnc(N2CC[C@@H]3CCN(C(=O)c4ccccc4-n4nccn4)C[C@@H]32)c1 [Example A8]
- IC50 [1]: ≥ 10 µM
- IC50 [2]: ≥ 10 µM

SMILES: COc1cc(N2CC[C@@H]3CCN(C(=O)c4ccccc4-n4nccn4)C[C@@H]32)ncc1C#N [Example A9]
- IC50 [1]: 2.64 µM
- IC50 [2]: ≥ 10 µM

SMILES: O=C(c1ccccc1-n1nccn1)N1CC[C@H]2CCN(c3ccc(-n4ccnc4)nn3)[C@H]2C1 [Example A10, (3aR, 7aR)-(1-(6-(1H-imidazol-1-yl)pyridazin-3-yl)hexahydro-1H-pyrrolo[2,3-c]pyridin-6(2H)-yl)(2-(2H-1,2,3-triazol-2-yl)phenyl)methanone]
- IC50 [1]: 10 µM
- IC50 [2]: 10 µM

SMILES: Cc1ccc(C)n1-c1ccc(N2CC[C@@H]3CCN(C(=O)c4ccccc4-n4nccn4)C[C@@H]32)nn1 [Example A11, (2-(2H-1,2,3-triazol-2-yl)phenyl)((3aR, 7aR)-1-(6-(2,5-dimethyl-1H-pyrrol-1-yl)pyridazin-3-yl)hexahydro-1H-pyrrolo[2,3-c]pyridin-6(2H)-yl)methanone]
- IC50 [1]: 10 µM
- IC50 [2]: 10 µM

SMILES: COC(=O)c1ccc(N2CC[C@@H]3CCN(C(=O)c4ccccc4-n4nccn4)C[C@@H]32)nn1 [Example A12, methyl 6-((3aR, 7aR)-6-(2-(2H-1,2,3-triazol-2-yl)benzoyl)octahydro-1H-pyrrolo[2,3-c]pyridin-1-yl)pyridazine-3-carboxylate]
- IC50 [1]: ≥ 10 µM
- IC50 [2]: ≥ 10 µM

SMILES: O=C(c1ccccc1-n1nccn1)N1CC[C@H]2CCN(c3ncnc4scnc34)[C@H]2C1 [Example A13, (2-(2H-1,2,3-triazol-2-yl)phenyl)((3aR, 7aR)-1-(thiazolo[5,4-d]pyrimidin-7-yl)hexahydro-1H-pyrrolo[2,3-c]pyridin-6(2H)-yl)methanone]
- IC50 [1]: ≥ 10 µM
- IC50 [2]: ≥ 10 µM

SMILES: N#Cc1cc(Cl)ncc1N1CC[C@@H]2CCN(C(=O)c3ccccc3-n3nccn3)C[C@@H]21 [Example A14, 5-((3aR, 7aR)-6-(2-(2H-1,2,3-triazol-2-yl)benzoyl)octahydro-1H-pyrrolo[2,3-c]pyridin-1-yl)-2-chloroisonicotinonitrile]
- IC50 [1]: ≥ 10 µM
- IC50 [2]: ≥ 10 µM

SMILES: Cc1c(C#N)ccnc1N1CC[C@@H]2CCN(C(=O)c3ccccc3-n3nccn3)C[C@@H]21 [Example A15, 2-(cis-6-(2-(2H-1,2,3-triazol-2-yl)benzoyl)ocathydro-1H-pyrrolo[2,3-c]pyridin-1-yl)-3-methylisonicotinonitrile]
- IC50 [1]: 0.0848 µM
- IC50 [2]: ≥ 10 µM

SMILES: CN(C)c1ccnc(N2CC[C@@H]3CCN(C(=O)c4ccccc4-n4nccn4)C[C@@H]32)c1C#N [Example A17, 4-(dimethylamino)-2-[(3aR, 7aR)-6-{[2-(2H-1,2,3-triazol-2-yl)phenyl]carbonyl}octahydro-1H-pyrrolo[2,3-c]pyridin-1-yl]pyridine-3-carbonitrile]
- IC50 [1]: 0.0698 µM
- IC50 [2]: ≥ 10 µM

SMILES: CN(C)c1cc(Cl)nc(N2CC[C@@H]3CCN(C(=O)c4ccccc4-n4nccn4)C[C@@H]32)n1 [Example A18, 6-chloro-N,N-dimethyl-2-[(3aR, 7aR)-6-{[2-(2H-1,2,3-triazol-2-yl)phenyl]carbonyl}octahydro-1H-pyrrolo[2,3-c]pyridin-1-yl]pyrimidin-4-amine]
- IC50 [1]: 0.13 µM
- IC50 [2]: 3.24 µM

SMILES: N#Cc1ccnc(N2CC[C@@H]3CCN(C(=O)c4ccccc4-n4nccn4)C[C@@H]32)c1Cl [Example A19, 3-chloro-2-[(3aR, 7aR)-6-{[2-(2H-1,2,3-triazol-2-yl)phenyl]carbonyl}octahydro-1H-pyrrolo[2,3-c]pyridin-1-yl]pyridine-4-carbonitrile]
- IC50 [1]: 0.0955 µM
- IC50 [2]: ≥ 10 µM

SMILES: O=C(c1ccccc1-n1nccn1)N1CC[C@H]2CCN(c3cc(C(F)(F)F)ccn3)[C@H]2C1 [Example A20, (3aR, 7aR)-6-{[2-(2H-1,2,3-triazol-2-yl)phenyl]carbonyl}-1-[4-(trifluoromethyl)pyridin-2-yl]octahydro-1H-pyrrolo[2,3-c]pyridine]
- IC50 [1]: 0.0665 µM
- IC50 [2]: 3.96 µM

SMILES: Cc1ccnc(N2CC[C@@H]3CCN(C(=O)c4ccccc4-n4nccn4)C[C@@H]32)c1 [Example B1, (2-(2H-1,2,3-triazol-2-yl)phenyl)((3aR,7aR)-1-(4-methylpyridin-2-yl)hexahydro-1H-pyrrolo[2,3-c]pyridin-6(2H)-yl)methanone]
- IC50 [1]: 0.902 µM
- IC50 [2]: ≥ 10 µM
